From patent US6054435A, “6-O-substituted macrolides having antibacterial activity” (priority 1999, dated 2000)
In brackets after ≈: the same amount, converted by molar mass.

Tests used:
Assay in all cases: in vitro antibacterial activity (MIC), agar dilution
Assay type in all cases: cell-based
Escherichia coli SS = settings: organism code RR; BHI agar, 35-37° C., 20 to 24 hours; unit assumed
Description: (§1) Representative compounds of the present invention were assayed in vitro for antibacterial activity as follows: Twelve petri dishes containing successive aqueous dilutions of the test compound mixed with 10 mL of sterilized Brain Heart Infusion (BHI) agar (Difco 0418-01-5) were prepared. Each plate was inoculated with 1:100 (or 1:10 for slow-growing strains, such as Micrococcus and Streptococcus) dilutions of up to 32 different microorganisms, using a Steers replicator block. […] In addition, a control plate, using BHI agar containing no test compound, was prepared and incubated at the beginning and end of each test.
(§2) An additional plate containing a compound having known susceptibility patterns for the organisms being tested and belonging to the same antibiotic class as the test compound was also prepared and incubated as a further control, as well as to provide test-to-test comparability.
(§3) After incubation, each plate was visually inspected. The minimum inhibitory concentration (MIC) was defined as the lowest concentration of drug yielding no growth, a slight haze, or sparsely isolated colonies on the inoculum spot as compared to the growth control.

[1] = test system: Streptococcus Pneumonia 5979; settings: organism code ZZ; BHI agar, 35-37° C., 20 to 24 hours; unit assumed
Description: as §1, §2, §3

[2] = test system: Staphylococcus aureus CMX 642A; settings: organism code DD; BHI agar, 35-37° C., 20 to 24 hours; unit assumed
Description: as §1, §2, §3

[3] = test system: Streptococcus agalactiae CMX 508; settings: organism code KK; BHI agar, 35-37° C., 20 to 24 hours; unit assumed
Description: as §1, §2, §3

[4] = test system: Staphylococcus aureus 1775; settings: organism code GG; BHI agar, 35-37° C., 20 to 24 hours; unit assumed
Description: as §1, §2, §3

[5] = test system: Streptococcus Pneumonia GYR 1171; settings: organism code YY; BHI agar, 35-37° C., 20 to 24 hours; unit assumed
Description: as §1, §2, §3

[6] = test system: Staphylococcus aureus A5177; settings: organism code BB; BHI agar, 35-37° C., 20 to 24 hours; unit assumed
Description: as §1, §2, §3

[7] = test system: Staphylococcus aureus ATCC 6538P; settings: organism code AA; BHI agar, 35-37° C., 20 to 24 hours; unit assumed
Description: as §1, §2, §3

[8] = test system: Enterococcus faecium ATCC 8043; settings: organism code II; BHI agar, 35-37° C., 20 to 24 hours; unit assumed
Description: as §1, §2, §3

Escherichia coli DC-2 = settings: organism code SS; BHI agar, 35-37° C., 20 to 24 hours; unit assumed
Description: as §1, §2, §3

[9] = test system: Staphylococcus aureus NCTC10649M; settings: organism code EE; BHI agar, 35-37° C., 20 to 24 hours; unit assumed
Description: as §1, §2, §3

[10] = test system: Staphylococcus aureus A-5278; settings: organism code CC; BHI agar, 35-37° C., 20 to 24 hours; unit assumed
Description: as §1, §2, §3

Candida albicans CCH 442 = settings: organism code TT; BHI agar, 35-37° C., 20 to 24 hours; unit assumed
Description: as §1, §2, §3

[11] = test system: Mycobacterium smegmatis ATCC 114; settings: organism code UU; BHI agar, 35-37° C., 20 to 24 hours; unit assumed
Description: as §1, §2, §3

Escherichia coli JUHL = settings: organism code QQ; BHI agar, 35-37° C., 20 to 24 hours; unit assumed
Description: as §1, §2, §3

[12] = test system: Micrococcus luteus ATCC 4698; settings: organism code PP; BHI agar, 35-37° C., 20 to 24 hours; unit assumed
Description: as §1, §2, §3

[13] = test system: Streptococcus bovis A-5169; settings: organism code JJ; BHI agar, 35-37° C., 20 to 24 hours; unit assumed
Description: as §1, §2, §3

[14] = test system: Nocardia Asteroides ATCC9970; settings: organism code VV; BHI agar, 35-37° C., 20 to 24 hours; unit assumed
Description: as §1, §2, §3

[15] = test system: Staphylococcus epidermidis 3519; settings: organism code HH; BHI agar, 35-37° C., 20 to 24 hours; unit assumed
Description: as §1, §2, §3

[16] = test system: Micrococcus luteus ATCC 9341; settings: organism code OO; BHI agar, 35-37° C., 20 to 24 hours; unit assumed
Description: as §1, §2, §3

[17] = test system: Streptococcus pyogenes EES61; settings: organism code LL; BHI agar, 35-37° C., 20 to 24 hours; unit assumed
Description: as §1, §2, §3

[18] = test system: Streptococcus pyogenes PIU 2548; settings: organism code NN; BHI agar, 35-37° C., 20 to 24 hours; unit assumed
Description: as §1, §2, §3

[19] = test system: Streptococcus Pneumonia 5649; settings: organism code ZZA; BHI agar, 35-37° C., 20 to 24 hours; unit assumed
Description: as §1, §2, §3

[20] = test system: Staphylococcus aureus CMX 553; settings: organism code FF; BHI agar, 35-37° C., 20 to 24 hours; unit assumed
Description: as §1, §2, §3

[21] = test system: Haemophilis Influenzae DILL AMP R; settings: organism code WW; BHI agar, 35-37° C., 20 to 24 hours; unit assumed
Description: as §1, §2, §3

[22] = test system: Streptococcus pyogenes 930; settings: organism code MM; BHI agar, 35-37° C., 20 to 24 hours; unit assumed
Description: as §1, §2, §3

[23] = test system: Streptococcus Pneumonia ATCC6303; settings: organism code XX; BHI agar, 35-37° C., 20 to 24 hours; unit assumed
Description: as §1, §2, §3

| SMILES | MIC (Escherichia coli SS) | MIC [2] | MIC [3] | MIC [5] | MIC [6] | MIC [7] | MIC [8] | MIC (Escherichia coli DC-2) | MIC [9] | MIC [10] | MIC (Candida albicans CCH 442) | MIC [11] | MIC (Escherichia coli JUHL) | MIC [12] | MIC [13] | MIC [14] | MIC [15] | MIC [16] | MIC [17] | MIC [18] | also measured |
| --- | --- | --- | --- | --- | --- | --- | --- | --- | --- | --- | --- | --- | --- | --- | --- | --- | --- | --- | --- | --- | --- |
| CC[C@H]1OC(=O)[C@H](C)C(=O)[C@H](C)[C@@H](O[C@@H]2O[C@H](C)C[C@H](N(C)C)[C@H]2O)[C@](C)(OCC#Cc2ccc(-c3cc(Cl)cc(Cl)c3)s2)C[C@@H](C)C(=O)[C@H](C)[C@H]2NC(=O)O[C@@]21C [Example 17] | 12.5 µg/mL (≈ 14.5 µM) | 0.78 µg/mL (≈ 0.903 µM) | 0.2 µg/mL (≈ 0.232 µM) | 0.125 µg/mL (≈ 0.145 µM) | 0.78 µg/mL (≈ 0.903 µM) | 0.39 µg/mL (≈ 0.451 µM) | 0.78 µg/mL (≈ 0.903 µM) | > 100 µg/mL | 1.56 µg/mL (≈ 1.81 µM) | 12.5 µg/mL (≈ 14.5 µM) | > 100 µg/mL | 0.78 µg/mL (≈ 0.903 µM) | > 100 µg/mL | 0.78 µg/mL (≈ 0.903 µM) | 0.2 µg/mL (≈ 0.232 µM) | 0.78 µg/mL (≈ 0.903 µM) | 0.78 µg/mL (≈ 0.903 µM) | 0.39 µg/mL (≈ 0.451 µM) | 0.39 µg/mL (≈ 0.451 µM) | 0.39 µg/mL (≈ 0.451 µM) | MIC [1]: 1 µg/mL (≈ 1.16 µM); MIC [4]: 12.5 µg/mL (≈ 14.5 µM); MIC [19]: 1 µg/mL (≈ 1.16 µM); MIC [20]: 0.78 µg/mL (≈ 0.903 µM); MIC [21]: 8 µg/mL (≈ 9.26 µM); MIC [22]: 3.1 µg/mL (≈ 3.59 µM) |
| CC[C@H]1OC(=O)[C@H](C)C(=O)[C@H](C)[C@@H](O[C@@H]2O[C@H](C)C[C@H](N(C)C)[C@H]2O)[C@](C)(OCC#Cc2ccc(-c3ccsc3)s2)C[C@@H](C)C(=O)[C@H](C)[C@H]2NC(=O)O[C@@]21C [Example 27] | 0.2 µg/mL (≈ 0.25 µM) | 0.05 µg/mL (≈ 0.0624 µM) | ≤ 0.005 µg/mL | 0.015 µg/mL (≈ 0.0187 µM) | 0.05 µg/mL (≈ 0.0624 µM) | 0.05 µg/mL (≈ 0.0624 µM) | 0.01 µg/mL (≈ 0.0125 µM) | 100 µg/mL (≈ 125 µM) | 0.05 µg/mL (≈ 0.0624 µM) | 100 µg/mL (≈ 125 µM) | > 100 µg/mL | 0.2 µg/mL (≈ 0.25 µM) | 100 µg/mL (≈ 125 µM) | 0.05 µg/mL (≈ 0.0624 µM) | ≤ 0.005 µg/mL | 0.01 µg/mL (≈ 0.0125 µM) | 0.05 µg/mL (≈ 0.0624 µM) | ≤ 0.005 µg/mL | ≤ 0.005 µg/mL | 0.1 µg/mL (≈ 0.125 µM) | MIC [1]: 4 µg/mL (≈ 4.99 µM); MIC [23]: 0.015 µg/mL (≈ 0.0187 µM); MIC [19]: 0.25 µg/mL (≈ 0.312 µM); MIC [20]: 0.05 µg/mL (≈ 0.0624 µM); MIC [21]: 2 µg/mL (≈ 2.5 µM); MIC [22]: 6.2 µg/mL (≈ 7.74 µM) |
| CC[C@H]1OC(=O)[C@H](C)[C@@H](O[C@H]2C[C@@](C)(OC)[C@@H](O)[C@H](C)O2)[C@H](C)[C@@H](O[C@@H]2O[C@H](C)C[C@H](N(C)C)[C@H]2O)[C@](C)(O)C[C@@H](C)C(=O)[C@H](C)[C@@H](O)[C@]1(C)O [Ery. A, Erythromycin A, reference compound] | 0.78 µg/mL (≈ 1.06 µM) | 0.39 µg/mL (≈ 0.531 µM) | 0.05 µg/mL (≈ 0.0681 µM) | 0.06 µg/mL (≈ 0.0818 µM) | 3.1 µg/mL (≈ 4.22 µM) | 0.2 µg/mL (≈ 0.273 µM) | 0.05 µg/mL (≈ 0.0681 µM) | > 100 µg/mL | 0.39 µg/mL (≈ 0.531 µM) | > 100 µg/mL | > 100 µg/mL | 3.1 µg/mL (≈ 4.22 µM) | > 100 µg/mL | 0.2 µg/mL (≈ 0.273 µM) | 0.02 µg/mL (≈ 0.0273 µM) | 0.1 µg/mL (≈ 0.136 µM) | 0.39 µg/mL (≈ 0.531 µM) | 0.05 µg/mL (≈ 0.0681 µM) | 0.05 µg/mL (≈ 0.0681 µM) | 6.2 µg/mL (≈ 8.45 µM) | MIC [4]: > 100 µg/mL; MIC [23]: 0.06 µg/mL (≈ 0.0818 µM); MIC [19]: 16 µg/mL (≈ 21.8 µM); MIC [20]: 0.39 µg/mL (≈ 0.531 µM); MIC [21]: 4 µg/mL (≈ 5.45 µM); MIC [22]: > 100 µg/mL |
